Molecular target: human GLP-1R (Homo sapiens, UniProt P43220)
Assay: GLP-1R Cell Assay 1: cAMP Hunter CHO-K1 GLP1R Gs cell line, HitHunter cAMP assay
Format: cell-based
Conditions: cAMP Hunter CHO-K1 GLP1R Gs cells, percent activity normalized to Exendin-4
Description: GLP-1R mediated agonist activity was determined using the cAMP Hunter CHO-K1 GLP1R Gs cell line (DiscoverX, cat# 95-0062C2), a stable CHO-K1 derived cell lines overexpressing naturally Gs coupled wild-type human GLP-1R (accession number: NM_002062.3). GLP-1R agonism in this cell line was detected by measuring cellular cAMP levels using the HitHunter cAMP assay kit (cat# 90-0075SM2), a homogenous, gain-of-signal competitive immune assay based on Enzyme Fragment Complementation (EFC) technology. In this system cellular cAMP competes with exogenous labeled cAMP (ED-cAMP) for binding to an anti-cAMP antibody. […] The luminescent signal is directly proportional to the amount of cellular cAMP.
For compound testing, cells were seeded in a total volume of 20 μL in white walled, 384-well microplates and incubated at 37° C. prior to compound testing. Prior to compound addition, cell culture media was removed by aspiration and replaced with 15 pt reagent buffer (2:1 HBSS/10 mM HEPES: cAMP XS+Ab reagent). Compounds were dissolved in DSMO and serially diluted (3-fold) prior to final dilution to 4X in assay buffer. Samples (5 μL) were added to cells and incubated at 37° C. for […] prior to 1 hour incubation with 20 pt cAMP XS+ED/CL lysis reagent and 3 hour incubation with 20 μL cAMP XS+EA reagent at room temperature. Microplates were read on a PerkinElmer Envision instrument. Compound activity was analyzed using CBIS data analysis suite (ChemInnovation). Percent activity was calculated based on duplicate assay runs and normalized to the positive control Exendin-4, a GLP-1R peptide agonist, using the following formula: […]
The effective compound concentration resulting in 50% response (EC50) was determined by non-linear regression analysis of dose-response curves.

Sequence of human GLP-1R (P43220 24-463): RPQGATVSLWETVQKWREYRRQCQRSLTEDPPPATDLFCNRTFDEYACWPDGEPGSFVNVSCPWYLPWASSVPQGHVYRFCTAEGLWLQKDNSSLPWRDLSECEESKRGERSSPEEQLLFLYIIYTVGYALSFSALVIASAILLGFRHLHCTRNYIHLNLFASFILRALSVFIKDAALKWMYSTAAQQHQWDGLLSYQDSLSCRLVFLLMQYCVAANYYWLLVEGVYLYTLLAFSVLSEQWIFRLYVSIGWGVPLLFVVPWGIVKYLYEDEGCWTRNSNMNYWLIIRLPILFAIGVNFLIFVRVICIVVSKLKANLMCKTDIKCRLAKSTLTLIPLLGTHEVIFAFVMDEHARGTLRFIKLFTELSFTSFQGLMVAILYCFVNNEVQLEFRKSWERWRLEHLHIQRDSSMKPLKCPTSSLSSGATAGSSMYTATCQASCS

| SMILES | EC50 (Table 3) [nM] | EC50 (Table 2) [nM] |
| --- | --- | --- |
| O=C(O)c1ccc2nc(CN3CCC(c4cccc5c4CC(=O)N(c4ccccc4)C5)CC3)n(C[C@@H]3CCO3)c2c1 [Compound 152, (S)-1-(oxetan-2-ylmethyl)-2-((4-(3-oxo-2-phenyl-1,2,3,4-tetrahydroisoquinolin-5-yl)piperidin-1-yl)methyl)-1H-benzo[d]imidazole-6-carboxylic acid] | > 500 |  |
| N#Cc1ccc(COc2cccc([C@]34CCN(Cc5nc6ccc(C(=O)O)cc6n5C[C@@H]5CCO5)C[C@H]3C4)n2)c(F)c1 [Compound 9-P2, 2-(((1S,6R)-6-(6-((4-cyano-2-fluorobenzyl)oxy)pyridin-2-yl)-3-azabicyclo[4.1.0]heptan-3-yl)methyl)-1-((S)-oxetan-2-ylmethyl)-1H-benzo[d]imidazole-6-carboxylic acid] |  | 0.494 |
| C[C@@H](Oc1cccc(N2CCN(Cc3nc4ccc(C(=O)O)cc4n3C[C@@H]3CCO3)CC2)n1)c1nc2ccccc2s1 [Compound 116, 2-((4-(6-((R)-1-(benzo[d]thiazol-2-yl)ethoxy)pyridin-2-yl)piperazin-1-yl)methyl)-1-(((S)-oxetan-2-yl)methyl)-1H-benzo[d]imidazole-6-carboxylic acid] |  | 4.27 |
| O=C(O)c1ccc2nc(CN3CCN(c4cccc(OCCC5CCCCC5)n4)CC3)n(C[C@@H]3CCO3)c2c1 [Compound 44, (S)-2-((4-(6-(2-cyclohexylethoxy)pyridin-2-yl)piperazin-1-yl)methyl)-1-(oxetan-2-ylmethyl)-1H-benzo[d]imidazole-6-carboxylic acid] |  | 82.1 |
| CCn1cncc1Cn1c(CN2CC[C@]3(c4cccc(OCc5ccc(C#N)cc5F)n4)C[C@@H]3C2)nc2ccc(C(=O)O)cc21 (single isomer, unassigned) [Compound 121-P2] |  | 0.0386 |
| O=C(O)c1ccc2nc(CN3CCN(c4ccc5cnn(Cc6ccccc6)c5n4)CC3)n(C[C@@H]3CCO3)c2c1 [Compound 27, (S)-2-((4-(1-benzyl-1H-pyrazolo[3,4-b]pyridin-6-yl)piperazin-1-yl)methyl)-1-(oxetan-2-ylmethyl)-1H-benzo[d]imidazole-6-carboxylic acid] |  | 232 |
| O=C(O)c1ccc2nc(CN3CCC(n4nccc4COc4ccccc4)CC3)n(C[C@@H]3CCO3)c2c1 (single isomer, unassigned) [Compound 26-P2] |  | > 500 |
| N#Cc1ccc(COc2cccc(C3CCN([C@H]4CCn5c4nc4ccc(C(=O)O)cc45)CC3)n2)c(F)c1 (single isomer, unassigned) [Compound 6-P2] |  | > 500 |
| N#Cc1ccc(COc2nn(C3CCN(Cc4nc5ccc(C(=O)O)cc5n4C[C@@H]4CCO4)CC3)cc2C2CC2)c(F)c1 [Compound 132, (S)-2-((4-(3-((4-cyano-2-fluorobenzyl)oxy)-4-cyclopropyl-1H-pyrazol-1-yl)piperidin-1-yl)methyl)-1-(oxetan-2-ylmethyl)-1H-benzo[d]imidazole-6-carboxylic acid] |  | 34 |
| O=C(O)c1ccc2nc(CN3CCN(c4cccc(OCc5nc6cccc(F)c6s5)n4)CC3)n(C[C@@H]3CCO3)c2c1 [Compound 123, (S)-2-((4-(6-((7-fluorobenzo[d]thiazol-2-yl)methoxy)pyridin-2-yl)piperazin-1-yl)methyl)-1-(oxetan-2-ylmethyl)-1H-benzo[d]imidazole-6-carboxylic acid] |  | 1.07 |
| N#Cc1cc(F)c2c(c1)CCN(c1cccc(N3CCN(Cc4nc5ccc(C(=O)O)cc5n4C[C@@H]4CCO4)CC3)n1)C2 [Compound 73, (S)-2-((4-(6-(6-cyano-8-fluoro-3,4-dihydroisoquinolin-2(1H)-yl)pyridin-2-yl)piperazin-1-yl)methyl)-1-(oxetan-2-ylmethyl)-1H-benzo[d]imidazole-6-carboxylic acid] |  | 1.43 |
| CCn1cncc1Cn1c(CN2CC[C@@]3(c4cccc(OCc5ccc(C#N)cc5F)n4)C[C@H]3C2)nc2ccc(C(=O)O)cc21 (single isomer, unassigned) [Compound 121-P1] |  | 0.0329 |
| N#Cc1ccc2c(c1)CCC[C@H]2Oc1cccc(C2CCN(Cc3nc4ccc(C(=O)O)cc4n3C[C@@H]3CCO3)CC2)n1 (single isomer, unassigned) [Compound 146-P1] | > 500 |  |
| N#Cc1ccc(CN2CCCc3ccc(N4CCN(Cc5nc6ccc(C(=O)O)cc6n5C[C@@H]5CCO5)CC4)nc32)c(F)c1 [Compound 148, (S)-2-((4-(8-(4-cyano-2-fluorobenzyl)-5,67,8-tetrahydro-1,8-naphthyridin-2-yl)piperazin-1-yl)methyl)-1-(oxetan-2-ylmethyl)-1H-benzo[d]imidazole-6-carboxylic acid] | > 500 |  |
| O=C(O)c1ccc2nc(CN3CCN(c4cccc(OCc5nc6ccccc6o5)n4)CC3)n(C[C@@H]3CCO3)c2c1 [Compound 67, (S)-2-((4-(6-(benzo[d]oxazol-2-ylmethoxy)pyridin-2-yl)piperazin-1-yl)methyl)-1-(oxetan-2-ylmethyl)-1H-benzo[d]imidazole-6-carboxylic acid] |  | 0.849 |
| O=C(O)c1ccc2nc(CN3CCC(n4ccc(OCc5nc6ccccc6s5)n4)CC3)n(C[C@@H]3CCO3)c2c1 [Compound 101, (S)-2-((4-(3-(benzo[d]thiazol-2-ylmethoxy)-1H-pyrazol-1-yl)piperidin-1-yl)methyl)-1-(oxetan-2-ylmethyl)-1H-benzo[d]imidazole-6-carboxylic acid] |  | 28.7 |
| O=C(O)c1ccc2nc(CN3CCN(c4cccc(OCc5nc6cccnc6s5)n4)CC3)n(C[C@@H]3CCO3)c2c1 [Compound 122, (S)-1-(oxetan-2-ylmethyl)-2-((4-(6-(thiazolo[5,4-b]pyridin-2-ylmethoxy)pyridin-2-yl)piperazin-1-yl)methyl)-1H-benzo[d]imidazole-6-carboxylic acid] |  | 2.24 |
| N#Cc1ccc(COc2nn(C3CCN(Cc4nc5ccc(C(=O)O)cc5n4C[C@@H]4CCO4)CC3)cc2Cl)c(F)c1 [Compound 102, (S)-2-((4-(4-chloro-3-((4-cyano-2-fluorobenzyl)oxy)-1H-pyrazol-1-yl)piperidin-1-yl)methyl)-1-(oxetan-2-ylmethyl)-1H-benzo[d]imidazole-6-carboxylic acid] |  | 3.94 |
| C[C@H](Oc1cccc(N2CCN(Cc3nc4ccc(C(=O)O)cc4n3C[C@@H]3CCO3)CC2)n1)c1nc2ccccc2s1 [Compound 115, 2-((4-(6-((S)-1-(benzo[d]thiazol-2-yl)ethoxy)pyridin-2-yl)piperazin-1-yl)methyl)-1-(((S)-oxetan-2-yl)methyl)-1H-benzo[d]imidazole-6-carboxylic acid] |  | 8 |
| O=C(O)c1ccc2nc(CN3CCC(n4cc5cccc(Oc6ccccc6)c5n4)CC3)n(C[C@@H]3CCO3)c2c1 [Compound 159, (S)-1-(oxetan-2-ylmethyl)-2-((4-(7-phenoxy-2H-indazol-2-yl)piperidin-1-yl)methyl)-1H-benzo[d]imidazole-6-carboxylic acid] | > 500 |  |
| O=C(O)c1ccc2nc(CN3CCN(c4cccc(OCCC5COC5)n4)CC3)n(C[C@@H]3CCO3)c2c1 [Compound 35, (S)-1-(oxetan-2-ylmethyl)-2-((4-(6-(2-(oxetan-3-yl)ethoxy)pyridin-2-yl)piperazin-1-yl)methyl)-1H-benzo[d]imidazole-6-carboxylic acid] |  | > 500 |
| C[C@@H]1COC[C@H](N2CCC(c3cccc(OCc4ccc(C#N)cc4F)n3)CC2)c2nc3ccc(C(=O)O)cc3n21 [Compound 95, (1R,5R)-5-(4-(6-((4-cyano-2-fluorobenzyl)oxy)pyridin-2-yl)piperidin-1-yl)-1-methyl-1,2,4,5-tetrahydrobenzo[4,5]imidazo[1,2-d][1,4]oxazepine-9-carboxylic acid] |  | 46.6 |
| O=C(O)c1ccc2nc(CN3CCN(c4cc5ccccc5c(OCc5ccccc5)n4)CC3)n(C[C@@H]3CCO3)c2c1 [Compound 156, (S)-2-((4-(1-(benzyloxy)isoquinolin-3-yl)piperazin-1-yl)methyl)-1-(oxetan-2-ylmethyl)-1H-benzo[d]imidazole-6-carboxylic acid] | 87.1 |  |
| Cc1cn(C2CCN(Cc3nc4ccc(C(=O)O)cc4n3C[C@@H]3CCO3)CC2)nc1OCc1ccccc1 [Compound 24, (S)-2-((4-(3-(benzyloxy)-4-methyl-1H-pyrazol-1-yl)piperidin-1-yl)methyl)-1-(oxetan-2-ylmethyl)-1H-benzo[d]imidazole-6-carboxylic acid] |  | 350 |
| CCn1cncc1Cn1c(CN2CC[C@@]3(c4cccc(N5CCc6cc(C#N)cc(F)c6C5)n4)C[C@H]3C2)nc2ccc(C(=O)O)cc21 [Compound 184-P1, 2-(((1R,6S)-6-(6-(6-cyano-8-fluoro-3,4-dihydroisoquinolin-2(1H)-yl)pyridin-2-yl)-3-azabicyclo[4.1.0]heptan-3-yl)methyl)-1-((1-ethyl-1H-imidazol-5-yl)methyl)-1H-benzo[d]imidazole-6-carboxylic acid] | 0.266 |  |

Source: US20220089578A1, “COMPOUNDS AS GLP-1R AGONISTS” (Terns Pharmaceuticals, Inc., priority 2020, published 2022)
